Experimental data taken from ChEMBL document CHEMBL4219198, “Peptidomimetic nitrile inhibitors of malarial protease falcipain-2 with high selectivity against human cathepsins” (Bioorg Med Chem Lett, 2018).

Key:
[1] = Selectivity ratio of IC50 for human cathepsin B to IC50 for Plasmodium falciparum falcipain-2
Falcipain 2 = target: T1, Falcipain 2 (Plasmodium falciparum, UniProt Q9N6S8); test: Inhibition of Plasmodium falciparum falcipain-2
T1 sequence (Q9N6S8 whole entry): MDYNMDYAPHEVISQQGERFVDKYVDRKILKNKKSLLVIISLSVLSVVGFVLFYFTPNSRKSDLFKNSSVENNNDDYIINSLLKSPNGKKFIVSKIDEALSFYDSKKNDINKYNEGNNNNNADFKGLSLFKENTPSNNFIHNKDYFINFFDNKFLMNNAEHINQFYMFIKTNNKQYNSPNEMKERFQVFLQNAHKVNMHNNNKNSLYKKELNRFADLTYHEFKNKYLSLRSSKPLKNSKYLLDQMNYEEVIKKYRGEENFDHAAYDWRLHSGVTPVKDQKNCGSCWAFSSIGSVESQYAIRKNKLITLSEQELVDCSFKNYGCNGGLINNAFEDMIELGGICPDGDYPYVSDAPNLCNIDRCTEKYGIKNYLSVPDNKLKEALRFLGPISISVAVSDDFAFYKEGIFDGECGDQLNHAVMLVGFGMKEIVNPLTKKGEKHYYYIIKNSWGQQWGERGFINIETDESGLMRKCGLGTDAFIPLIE

[2] = Selectivity ratio of IC50 for human cathepsin S to IC50 for Plasmodium falciparum falcipain-2
[3] = Selectivity ratio of IC50 for human cathepsin K to IC50 for Plasmodium falciparum falcipain-2
[4] = Selectivity ratio of IC50 for human cathepsin L to IC50 for Plasmodium falciparum falcipain-2
Plasmodium falciparum = test: Antimalarial activity against Plasmodium falciparum infected in human erythrocytes; assay type: functional, organism-based
[5] = Cytotoxicity against human HeLa cells assessed as reduction in cell viability; assay type: cell-based
[6] = Cytotoxicity against HUVEC assessed as reduction in cell viability; assay type: cell-based; details: human, HUVEC cells
Cathepsin S = Cathepsin S (Homo sapiens, UniProt P25774); test: Inhibition of human cathepsin S
Sequence of Cathepsin S (P25774 whole entry): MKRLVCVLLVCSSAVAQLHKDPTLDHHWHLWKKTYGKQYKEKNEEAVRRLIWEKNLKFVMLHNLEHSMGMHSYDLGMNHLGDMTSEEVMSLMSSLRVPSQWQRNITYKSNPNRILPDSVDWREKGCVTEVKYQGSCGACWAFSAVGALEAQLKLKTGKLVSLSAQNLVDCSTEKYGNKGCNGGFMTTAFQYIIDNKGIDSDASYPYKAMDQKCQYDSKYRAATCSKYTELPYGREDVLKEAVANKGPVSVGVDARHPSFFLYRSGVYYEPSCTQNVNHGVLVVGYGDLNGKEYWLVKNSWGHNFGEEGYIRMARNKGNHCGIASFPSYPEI

Cathepsin B = Cathepsin B (Homo sapiens, UniProt P07858); test: Inhibition of human cathepsin B
Cathepsin K = target: T2, Cathepsin K (Homo sapiens, UniProt P43235); test: Inhibition of human cathepsin K
T2 sequence (P43235 whole entry): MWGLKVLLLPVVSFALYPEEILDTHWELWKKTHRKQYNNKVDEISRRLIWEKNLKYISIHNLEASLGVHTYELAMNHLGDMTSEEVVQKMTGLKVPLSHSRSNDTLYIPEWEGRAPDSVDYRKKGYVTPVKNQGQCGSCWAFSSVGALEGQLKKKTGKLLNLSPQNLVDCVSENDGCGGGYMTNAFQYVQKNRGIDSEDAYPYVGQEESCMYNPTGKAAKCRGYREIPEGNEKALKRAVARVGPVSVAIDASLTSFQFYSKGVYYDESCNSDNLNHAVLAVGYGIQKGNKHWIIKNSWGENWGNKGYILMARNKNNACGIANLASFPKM

Procathepsin L = Procathepsin L (Homo sapiens, UniProt P07711); test: Inhibition of human cathepsin L
Sequence of Procathepsin L (P07711 whole entry): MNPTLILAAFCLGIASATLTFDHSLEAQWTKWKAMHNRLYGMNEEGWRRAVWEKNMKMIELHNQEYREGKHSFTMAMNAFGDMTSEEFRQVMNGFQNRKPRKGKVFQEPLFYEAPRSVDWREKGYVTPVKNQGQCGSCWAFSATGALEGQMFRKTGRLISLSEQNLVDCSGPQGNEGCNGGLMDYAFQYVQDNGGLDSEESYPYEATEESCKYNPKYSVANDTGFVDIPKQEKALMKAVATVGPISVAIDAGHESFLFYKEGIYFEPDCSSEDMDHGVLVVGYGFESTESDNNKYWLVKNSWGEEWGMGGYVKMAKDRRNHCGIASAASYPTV

[7] = target: T3, Cysteine protease falcipain-3 (Plasmodium falciparum, UniProt Q9NAW4); test: Inhibition of Plasmodium falciparum falcipain-3
T3 sequence (Q9NAW4 whole entry): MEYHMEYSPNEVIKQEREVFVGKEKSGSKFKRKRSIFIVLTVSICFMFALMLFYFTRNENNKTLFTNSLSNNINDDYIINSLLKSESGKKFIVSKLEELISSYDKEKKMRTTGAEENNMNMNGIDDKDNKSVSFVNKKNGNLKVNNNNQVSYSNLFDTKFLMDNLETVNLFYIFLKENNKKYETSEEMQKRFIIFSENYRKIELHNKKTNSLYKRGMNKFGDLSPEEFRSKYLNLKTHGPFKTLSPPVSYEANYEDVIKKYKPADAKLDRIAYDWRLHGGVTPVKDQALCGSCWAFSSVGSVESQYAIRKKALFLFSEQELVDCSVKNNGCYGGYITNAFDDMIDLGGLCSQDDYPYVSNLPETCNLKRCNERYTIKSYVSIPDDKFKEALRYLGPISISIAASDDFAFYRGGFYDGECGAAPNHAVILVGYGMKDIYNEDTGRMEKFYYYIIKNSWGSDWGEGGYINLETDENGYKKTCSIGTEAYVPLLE

SMILES	Ratio IC50 [1]	IC50 (Falcipain 2) [nM]	Ratio IC50 [2]	Ratio IC50 [3]	Ratio IC50 [4]	EC50 (Plasmodium falciparum) [nM]	IC50 (Cathepsin S) [nM]	IC50 (Cathepsin B) [nM]	IC50 (Cathepsin K) [nM]	IC50 (Procathepsin L) [nM]	IC50 [7] [nM]	CC50 [5] [nM]	CC50 [6] [nM]
CC(C)C[C@H](NC(=O)c1ccc(-c2ccccc2)cc1)C(=O)NC1(C#N)CC1	–	27	–	–	–	–	85	1720	1.3	492	–	–	–
CN1CCN(Cc2ccc(C(=O)N[C@@H](Cc3cccnc3)C(=O)NC3(C#N)CCS(=O)(=O)CC3)s2)CC1	> 90	55.4	7	34	6	–	–	–	–	–	–	–	–
N#CC1(NC(=O)C(Cc2ccc(Cl)nc2)NC(=O)c2ccc(-c3ccccc3)cc2)CC1 (stereo unspecified)	–	230	–	–	–	–	190	> 5000	> 5000	4280	–	–	–
CN1CCCC(c2cccc(C(=O)N[C@@H](Cc3cccnc3)C(=O)NC3(C#N)CC3)c2)C1 (stereo partly specified)	> 581	8.6	202	170	61	–	–	–	–	–	–	–	–
Cn1nc(C(F)(F)F)cc1-c1ccc(C(=O)N[C@@H](Cc2cccnc2)C(=O)NC2(C#N)CC2)s1	> 2270	2.2	30	212	1240	–	–	–	–	–	–	–	–
N#CC1(NC(=O)[C@H](Cc2ccccc2)NC(=O)c2ccc(-c3ccccc3)cc2)CC1	–	667	–	–	–	–	283	2210	213	635	–	–	–
CC(C)CN(NC(=O)c1ccc(CN2CCN(C)CC2)cc1)c1nc(C#N)ncc1Br	–	0.6	–	–	–	61	30	987	0.2	0.7	–	–	–
CC(C)C[C@H](NC(=O)c1ccc(CN2CCN(C)CC2)cc1)C(=O)NC1(C#N)CCS(=O)(=O)CC1	–	57	–	–	–	2700	1	2320	1	4	–	–	–
COc1ccc(CC(NC(=O)c2ccc(-c3ccccc3)cc2)C(=O)NC2(C#N)CC2)cn1 (stereo unspecified)	–	178	–	–	–	–	195	4080	> 5000	2630	–	–	–
CN(C)c1ccc(C[C@H](NC(=O)c2ccc(-c3ccccc3)cc2)C(=O)NC2(C#N)CC2)cc1	–	> 5000	–	–	–	–	–	715	> 5000	> 5000	–	–	–
CS(=O)(=O)c1cccc(-c2cccc(C(=O)N[C@@H](Cc3cccnc3)C(=O)NC3(C#N)CC3)c2)c1	> 610	8.2	26	180	302	–	–	–	–	–	–	–	–
N#CC1(NC(=O)[C@H](Cc2cccnc2)NC(=O)c2cccc(-c3cn[nH]c3)c2)CC1	> 4170	1.2	42	2350	349	2000	–	–	–	–	–	> 16000	> 16000
N#CC1(NC(=O)[C@@H](Cc2cccnc2)NC(=O)c2ccc(-c3ccccc3)cc2)CC1	–	> 5000	–	–	–	–	> 5000	> 50000	> 5000	> 5000	–	–	–
N#CC1(NC(=O)[C@H](Cc2ccccn2)NC(=O)c2ccc(-c3ccccc3)cc2)CC1	–	> 5000	–	–	–	–	> 5000	> 5000	3830	> 5000	–	–	–
N#CC1(NC(=O)[C@H](Cc2c[nH]c3ccc(O)cc23)NC(=O)c2ccc(-c3ccccc3)cc2)CC1	–	192	–	–	–	–	253	1100	1870	494	–	–	–

Further lines, with some results ahead:

Ratio IC50 [1]	IC50 (Falcipain 2) [nM]	Ratio IC50 [2]	Ratio IC50 [3]	Ratio IC50 [4]	EC50 (Plasmodium falciparum) [nM]	IC50 (Cathepsin S) [nM]	IC50 (Cathepsin B) [nM]	IC50 (Cathepsin K) [nM]	IC50 (Procathepsin L) [nM]	IC50 [7] [nM]	SMILES	CC50 [5] [nM]	CC50 [6] [nM]
> 192	25.9	32	34	14	–	–	–	–	–	–	CN1CCN(Cc2ccc(C(=O)N[C@@H](Cc3cccnc3)C(=O)NC3(C#N)CC3)s2)CC1	–	–
> 1670	3	35	1360	574	2000	–	–	–	–	–	N#CC1(NC(=O)[C@H](Cc2cccnc2)NC(=O)c2cccc(-n3cnnn3)c2)CC1	> 16000	> 16000
–	1590	–	–	–	–	3580	2240	2690	300	–	N#CC1(NC(=O)[C@H](Cc2ccc(O[C@@H]3CCNC3)cc2)NC(=O)c2ccc(-c3ccccc3)cc2)CC1	–	–
–	137	–	–	–	–	2370	2370	435	> 5000	–	N#CC1(NC(=O)[C@H](Cc2cscn2)NC(=O)c2ccc(-c3ccccc3)cc2)CC1	–	–
–	> 5000	–	–	–	–	> 5000	> 5000	> 5000	> 5000	–	CN1CCN(C(=O)C[C@H](NC(=O)c2ccc(-c3ccccc3)cc2)C(=O)NC2(C#N)CC2)CC1	–	–
> 793	6.3	9	107	679	–	–	–	–	–	–	Cn1nc(C(F)(F)F)cc1-c1ccc(C(=O)N[C@@H](Cc2cccnc2)C(=O)NC2(C#N)CCS(=O)(=O)CC2)s1	–	–
–	> 5000	–	–	–	–	> 5000	1270	> 5000	> 5000	–	N#CC1(NC(=O)[C@H](CCCCN)NC(=O)c2ccc(-c3ccccc3)cc2)CC1	–	–
–	> 5000	–	–	–	–	710	> 5000	867	755	–	N#CC1(NC(=O)[C@H](Cc2ccncc2)NC(=O)c2ccc(-c3ccccc3)cc2)CC1	–	–
–	8	–	–	–	> 25000	1.1	2500	0.11	99	–	CC(C)C[C@H](NC(=O)c1ccc(-c2ccccc2)cc1)C(=O)NC1(C#N)CCS(=O)(=O)CC1	–	–
–	> 5000	–	–	–	–	18	> 5000	> 5000	334	–	N#CC1(NC(=O)[C@H](Cc2nc3ccccc3s2)NC(=O)c2ccc(-c3ccccc3)cc2)CC1	–	–
119	23.1	11	9	69	> 25000	382	2750	202	1590	117	N#CC1(NC(=O)[C@H](Cc2cccnc2)NC(=O)c2ccc(-c3ccccc3)cc2)CC1	–	–
–	> 5000	–	–	–	–	–	–	–	–	–	N#CC1(NC(=O)[C@H](CCCCCN)NC(=O)c2ccc(-c3ccccc3)cc2)CC1	–	–
> 2080	2.4	552	> 2080	45	2000	–	–	–	–	–	CN1CCN(Cc2ccc(-c3cncc(C(=O)N[C@@H](Cc4cccnc4)C(=O)NC4(C#N)CC4)c3)cc2)CC1	> 16000	> 16000
> 1850	2.7	76	718	128	2000	–	–	–	–	–	N#CC1(NC(=O)[C@H](Cc2cccnc2)NC(=O)c2cccc(-c3ncc[nH]3)c2)CC1	> 16000	> 16000
